Where no end group is shown, it is not given here. [ ]: non-standard residue; d: D form. pS = N[C@@H](COP(=O)(O)O)C(=O)O
Experiments:
Assay in all cases: Histone peptide microarray
Assay type in all cases: binding, human
RAG2 = conditions: RAG2, GST-tagged; arrays performed twice, n of 4
Text: (§1) To more comprehensively define the histone interactions of the 31 PHD readers identified from the domain microarray analyses, we probed each on an alternate microarray platform containing a library of 293 synthetic histone peptides with single or combinatorial PTMs (Additional file 2: Figure S4 and Additional file 3: Table S2).
(§2) The 31 GST-tagged PHD readers identified in the PHD finger domain array were expressed and purified as previously. Histone peptide arrays and peptide pulldown assays were conducted as recently described (specifically, the optimized protocol from Petell et al. for the former).
(§3) Supplementary file 13072_2020_328_MOESM3_ESM.xlsx: Additional file 3: Table S2. […] Excel Tab Peptide List is a compiled list of the entire 293 histone peptide library with amino acid sequence ranges. […] Each number corresponds to the peptide number designated in Peptide List. Excel Tab Average Signals is a compiled set of binding data: chromatin reader at 0.5 μM vs. entire 293 peptide library. Data is presented as the average and standard deviation of 4 replicates. The average signals are colored to indicate signal intensity with green being strong and white being weak/low. […] Key: red= stronger relative binding; blue = weaker relative binding. Excel Tab Array info summary is a table summarizing the domains, sequence coverage, array signal range, and noise for each of the GST-tagged readers assayed on the peptide microarrays.

DPF2 (PPC2W2) = conditions: DPF2 (PPC2W2), GST-tagged; arrays performed twice, n of 4
Text: as §1, §2, §3

KDM5B (3) = conditions: KDM5B (3), GST-tagged; arrays performed twice, n of 4
Text: as §1, §2, §3

PHF13 = conditions: PHF13, GST-tagged; arrays performed twice, n of 4
Text: as §1, §2, §3

PHF8 = conditions: PHF8, GST-tagged; arrays performed twice, n of 4
Text: as §1, §2, §3

MORC3 (CW) = conditions: MORC3 (CW), GST-tagged; arrays performed twice, n of 4
Text: as §1, §2, §3

TAF3 = conditions: TAF3, GST-tagged; arrays performed twice, n of 4
Text: as §1, §2, §3

CHD5 (PCC) = conditions: CHD5 (PCC), GST-tagged; arrays performed twice, n of 4
Text: as §1, §2, §3

ING3 = conditions: ING3, GST-tagged; arrays performed twice, n of 4
Text: as §1, §2, §3

BAZ2B = conditions: BAZ2B, GST-tagged; arrays performed twice, n of 4
Text: as §1, §2, §3

PHRF1 (RP) = conditions: PHRF1 (RP), GST-tagged; arrays performed twice, n of 4
Text: as §1, §2, §3

MLL5 = conditions: MLL5, GST-tagged; arrays performed twice, n of 4
Text: as §1, §2, §3

PHF23 = conditions: PHF23, GST-tagged; arrays performed twice, n of 4
Text: as §1, §2, §3

CHD4 (PPCC) = conditions: CHD4 (PPCC), GST-tagged; arrays performed twice, n of 4
Text: as §1, §2, §3

DIDO1 = conditions: DIDO1, GST-tagged; arrays performed twice, n of 4
Text: as §1, §2, §3

CHD5 (PPCC) = conditions: CHD5 (PPCC), GST-tagged; arrays performed twice, n of 4
Text: as §1, §2, §3

ING1 = conditions: ING1, GST-tagged; arrays performed twice, n of 4
Text: as §1, §2, §3

PHF2 = conditions: PHF2, GST-tagged; arrays performed twice, n of 4
Text: as §1, §2, §3

ING2 = conditions: ING2, GST-tagged; arrays performed twice, n of 4
Text: as §1, §2, §3

TRIM66 (PB) = conditions: TRIM66 (PB), GST-tagged; arrays performed twice, n of 4
Text: as §1, §2, §3

PHF21A = conditions: PHF21A, GST-tagged; arrays performed twice, n of 4
Text: as §1, §2, §3

KDM7A = conditions: KDM7A, GST-tagged; arrays performed twice, n of 4
Text: as §1, §2, §3

KDM5A (1) = conditions: KDM5A (1), GST-tagged; arrays performed twice, n of 4
Text: as §1, §2, §3

BPTF (PB) = conditions: BPTF (PB), GST-tagged; arrays performed twice, n of 4
Text: as §1, §2, §3

SP140L = conditions: SP140L, GST-tagged; arrays performed twice, n of 4
Text: as §1, §2, §3

ING5 = conditions: ING5, GST-tagged; arrays performed twice, n of 4
Text: as §1, §2, §3

AIRE (PP) = conditions: AIRE (PP), GST-tagged; arrays performed twice, n of 4
Text: as §1, §2, §3

KDM4C (TTP) = conditions: KDM4C (TTP), GST-tagged; arrays performed twice, n of 4
Text: as §1, §2, §3

KDM5A (3) = conditions: KDM5A (3), GST-tagged; arrays performed twice, n of 4
Text: as §1, §2, §3

ING4 = conditions: ING4, GST-tagged; arrays performed twice, n of 4
Text: as §1, §2, §3

KDM5B (1) = conditions: KDM5B (1), GST-tagged; arrays performed twice, n of 4
Text: as §1, §2, §3

Substance	Array Heatmap value (peptide array binding signal) (RAG2)	Array Heatmap value (peptide array binding signal) (DPF2 (PPC2W2))	Array Heatmap value (peptide array binding signal) (KDM5B (3))	Array Heatmap value (peptide array binding signal) (PHF13)	Array Heatmap value (peptide array binding signal) (PHF8)	Array Heatmap value (peptide array binding signal) (MORC3 (CW))	Array Heatmap value (peptide array binding signal) (TAF3)	Array Heatmap value (peptide array binding signal) (CHD5 (PCC))	Array Heatmap value (peptide array binding signal) (ING3)	Array Heatmap value (peptide array binding signal) (BAZ2B)	Array Heatmap value (peptide array binding signal) (PHRF1 (RP))	Array Heatmap value (peptide array binding signal) (MLL5)	Array Heatmap value (peptide array binding signal) (PHF23)	Array Heatmap value (peptide array binding signal) (CHD4 (PPCC))	Array Heatmap value (peptide array binding signal) (DIDO1)	Array Heatmap value (peptide array binding signal) (CHD5 (PPCC))	Array Heatmap value (peptide array binding signal) (ING1)	Array Heatmap value (peptide array binding signal) (PHF2)	Array Heatmap value (peptide array binding signal) (ING2)	Array Heatmap value (peptide array binding signal) (TRIM66 (PB))	also measured
H2AX (132-142): H2AX 132-142 (GKKATQASQEY; UniProt P16104 133-143, looked up, fragment)	0.2674	0.6502	0.4637	0.5577	0.3348	0.4162	0.2878	0.733	0.4477	0.4423	0.3943	0.533	0.5369	0.5518	0.7308	0.5152	0.536	0.5225	0.621	0.5363	Array Heatmap value (peptide array binding signal) (PHF21A): 0.4468; Array Heatmap value (peptide array binding signal) (KDM7A): 0.3262; Array Heatmap value (peptide array binding signal) (KDM5A (1)): 0.4587; Array Heatmap value (peptide array binding signal) (BPTF (PB)): 0.3256; Array Heatmap value (peptide array binding signal) (SP140L): 0.3692; Array Heatmap value (peptide array binding signal) (ING5): 0.3322; Array Heatmap value (peptide array binding signal) (AIRE (PP)): 0.4547; Array Heatmap value (peptide array binding signal) (KDM4C (TTP)): 0.4463; Array Heatmap value (peptide array binding signal) (KDM5A (3)): 0.478; Array Heatmap value (peptide array binding signal) (ING4): 0.4334; Array Heatmap value (peptide array binding signal) (KDM5B (1)): 0.6162
H2AX (S139p): H2AX 132-142 (GKKATQA[pS]QEY; UniProt P16104 133-143, looked up, fragment)	0.2586	0.653	0.5358	0.6185	0.3729	0.3885	0.2793	0.7872	0.4704	0.5073	0.411	0.5137	0.5395	0.5526	0.6489	0.5731	0.495	0.4467	0.5973	0.5363	Array Heatmap value (peptide array binding signal) (PHF21A): 0.4613; Array Heatmap value (peptide array binding signal) (KDM7A): 0.4369; Array Heatmap value (peptide array binding signal) (KDM5A (1)): 0.5265; Array Heatmap value (peptide array binding signal) (BPTF (PB)): 0.3554; Array Heatmap value (peptide array binding signal) (SP140L): 0.363; Array Heatmap value (peptide array binding signal) (ING5): 0.3847; Array Heatmap value (peptide array binding signal) (AIRE (PP)): 0.5219; Array Heatmap value (peptide array binding signal) (KDM4C (TTP)): 0.5256; Array Heatmap value (peptide array binding signal) (KDM5A (3)): 0.4478; Array Heatmap value (peptide array binding signal) (ING4): 0.4783; Array Heatmap value (peptide array binding signal) (KDM5B (1)): 0.697
